Assay [1] has as its target T1, Dual specificity mitogen-activated protein kinase kinase 1 (Homo sapiens, UniProt Q02750).
For assay [2], the system named is Caco-2. Nature of the assay: cells. The conditions noted are these: Homo sapiens.
Assay [3] has as its system LoVo. Nature of the assay: cells. To be noted: Homo sapiens.
Assay [4] deals with Serine/threonine-protein kinase AKT (Homo sapiens, UniProt P31751+Q9Y243+P31749). Nature of the assay: Inhibition of Akt phosphorylation in LoVo cells. It counts as functional, cell-based.
For assay [5], the target named is T1, Dual specificity mitogen-activated protein kinase kinase 1. Briefly: Inhibition of MEK1 phosphorylation in LoVo cells. In kind it is functional, cell-based.
Assay [6] relates to LoVo. Nature of the assay: Inhibition of tyrosine phosphorylation in LoVo cells. It counts as functional, cell-based. To be noted: Homo sapiens.
Assay [7] has as its target Epidermal growth factor receptor (Homo sapiens, UniProt P00533).

T1 sequence (Q02750 whole entry): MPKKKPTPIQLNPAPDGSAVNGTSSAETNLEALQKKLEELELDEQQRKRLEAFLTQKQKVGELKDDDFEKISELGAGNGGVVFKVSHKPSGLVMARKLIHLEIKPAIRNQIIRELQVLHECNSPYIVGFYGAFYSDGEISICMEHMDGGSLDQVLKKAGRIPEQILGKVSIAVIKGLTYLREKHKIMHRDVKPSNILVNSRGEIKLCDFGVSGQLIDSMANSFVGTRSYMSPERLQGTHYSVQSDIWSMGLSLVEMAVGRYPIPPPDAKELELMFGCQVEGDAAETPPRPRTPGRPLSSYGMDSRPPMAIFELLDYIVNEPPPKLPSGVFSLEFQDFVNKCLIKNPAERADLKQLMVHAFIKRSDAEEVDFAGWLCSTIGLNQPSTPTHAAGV
Sequence of Epidermal growth factor receptor (P00533 whole entry): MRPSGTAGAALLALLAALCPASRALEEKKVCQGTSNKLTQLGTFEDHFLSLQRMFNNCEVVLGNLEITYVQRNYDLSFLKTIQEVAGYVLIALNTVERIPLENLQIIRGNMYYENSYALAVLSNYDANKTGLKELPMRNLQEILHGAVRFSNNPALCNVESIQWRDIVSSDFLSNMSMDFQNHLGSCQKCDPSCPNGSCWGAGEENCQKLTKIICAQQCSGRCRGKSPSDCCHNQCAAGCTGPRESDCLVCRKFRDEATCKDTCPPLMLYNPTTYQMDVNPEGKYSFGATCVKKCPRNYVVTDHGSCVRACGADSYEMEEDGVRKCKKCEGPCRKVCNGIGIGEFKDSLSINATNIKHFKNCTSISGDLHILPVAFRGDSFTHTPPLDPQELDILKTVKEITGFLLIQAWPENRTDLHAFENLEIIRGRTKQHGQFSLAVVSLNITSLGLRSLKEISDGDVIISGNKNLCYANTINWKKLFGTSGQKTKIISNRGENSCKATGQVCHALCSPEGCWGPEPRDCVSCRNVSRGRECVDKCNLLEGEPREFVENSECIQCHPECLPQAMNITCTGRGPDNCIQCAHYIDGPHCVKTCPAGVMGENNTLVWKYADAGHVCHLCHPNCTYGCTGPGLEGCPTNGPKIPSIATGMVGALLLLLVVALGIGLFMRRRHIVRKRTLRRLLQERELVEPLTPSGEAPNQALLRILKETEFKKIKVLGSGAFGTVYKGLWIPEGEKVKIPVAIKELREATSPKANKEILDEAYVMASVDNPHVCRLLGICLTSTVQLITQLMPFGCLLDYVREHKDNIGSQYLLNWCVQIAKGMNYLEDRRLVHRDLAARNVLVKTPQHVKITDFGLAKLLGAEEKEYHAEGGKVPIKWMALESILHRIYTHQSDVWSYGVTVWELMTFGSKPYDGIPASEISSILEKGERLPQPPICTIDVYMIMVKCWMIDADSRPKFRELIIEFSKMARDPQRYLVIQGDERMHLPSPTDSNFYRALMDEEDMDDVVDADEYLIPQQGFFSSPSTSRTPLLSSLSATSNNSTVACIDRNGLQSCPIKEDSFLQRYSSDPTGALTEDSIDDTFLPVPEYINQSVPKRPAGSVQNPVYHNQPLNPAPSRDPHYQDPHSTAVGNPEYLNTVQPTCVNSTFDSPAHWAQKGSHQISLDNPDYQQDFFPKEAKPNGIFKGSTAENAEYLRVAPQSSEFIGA

By IC50 is commonly meant the concentration needed to halve the response being measured. For the compound `COc1cc2c(Nc3ccc(Sc4nccs4)c(Cl)c3)c(C#N)cnc2cc1OCCCN1CCOCC1`, the figures for the IC50 in assay [1], in assay [2] and in assay [3] were 9 nM, 2700 nM and 56 nM, respectively.

As to `CCOc1cc2ncc(C#N)c(Nc3ccc(Sc4nccn4C)c(Cl)c3)c2cc1OCC`, the IC50 in assay [1] was 10 nM; in assay [2], greater than 1000 nM; in assay [3], 7 nM.

As for `COc1cc2c(Nc3ccc(Oc4ccccc4)cc3)c(C#N)cnc2cc1OCCCN1CCOCC1`, the IC50 in assay [4] was greater than 1000 nM; in assay [5], greater than 1000 nM; in assay [6], greater than 1000 nM; in assay [7] it was greater than 1000 nM; in assay [1], 4 nM; in assay [2] it was 5500 nM. For the same compound, in assay [3], the IC50 worked out at 400 nM.

`COc1cc2c(Nc3ccc(Sc4ccccn4)c(Cl)c3)c(C#N)cnc2cc1OCCCN1CCOCC1`: the results for the IC50 in assay [1], in assay [2] and in assay [3] were 8 nM, greater than 1000 nM and 200 nM, respectively.

On to `COc1cc2c(Nc3ccc(Sc4nccn4C)c(Cl)c3)c(C#N)cnc2cc1OCCCN1CC[S+]([O-])CC1`, for which the IC50 in assay [1] was 2 nM; in assay [2], greater than 1000 nM; in assay [3] it was 36 nM.

Turning to `CCN1CCN(CCCOc2cc3ncc(C#N)c(Nc4ccc(Sc5nccn5C)c(Cl)c4)c3cc2OC)CC1`, the IC50 in assay [2] was greater than 1000 nM.

Regarding `COc1cc2c(Nc3ccc(Sc4ncc(C)n4C)c(Cl)c3)c(C#N)cnc2cc1OCCCN1CCOCC1`, the figures for the IC50 in assay [1], in assay [2] and in assay [3] were 1 nM, greater than 1000 nM and 325 nM, respectively.

Consider `COc1cc2c(Nc3ccc(Sc4nccn4C)cc3)c(C#N)cnc2cc1OCCCN1CCOCC1`, for which the IC50 in assay [2] was 4700 nM; in assay [3], 43 nM.

As to `COc1cc2c(Nc3ccc(Sc4nc(C)c(C)n4C)c(Cl)c3)c(C#N)cnc2cc1OCCCN1CCOCC1`, the IC50 turned out to be 2 nM in assay [1], 900 nM in assay [2] and 342 nM in assay [3].

`COc1cc2c(Nc3ccc(Sc4nccn4C)c(Cl)c3)c(C#N)cnc2cc1OCCCN1CCOCC1`: the IC50 is greater than 1000 nM in assay [4]; 8 nM in assay [5]; greater than 1000 nM in assay [6]; greater than 1000 nM in assay [7]; 2 nM in assay [1]; greater than 1000 nM in assay [2]. Further, in assay [3], the IC50 worked out at 5 nM.

`COc1cc2c(Nc3ccc(Sc4nccn4C)c(C)c3)c(C#N)cnc2cc1OCCCN1CCOCC1`: the IC50 amounted to 3200 nM in assay [2] and 36 nM in assay [3].

On to `COc1cc2c(Nc3ccc(Sc4nccn4C)c(Cl)c3)c(C#N)cnc2cc1OCCCN1CCCC1`, for which the IC50 in assay [1] is 4 nM; in assay [2], greater than 1000 nM; in assay [3], 10 nM.

Consider `COc1cc2c(Nc3ccc(Cc4nccn4C)c(Cl)c3)c(C#N)cnc2cc1OCCCN1CCOCC1`, for which the values for the IC50 in assay [1], in assay [2] and in assay [3] were 212 nM, 5500 nM and 380 nM, respectively.

Take `O=C(NOCC1CC1)c1ccc(F)c(F)c1Nc1ccc(I)cc1Cl` [CI-1040]: the IC50 was greater than 1000 nM in assay [2] and 131 nM in assay [3].

Take `COc1cc2c(Nc3ccc(Sc4nccn4C)c(Br)c3)c(C#N)cnc2cc1OCCCN1CCOCC1`: the IC50 in assay [1] is 2 nM; in assay [2], 5200 nM; in assay [3], 5 nM.

These data come from ChEMBL document CHEMBL1146624, “Synthesis and evaluation of 4-anilino-6,7-dialkoxy-3-quinolinecarbonitriles as inhibitors of kinases of the Ras-MAPK signaling cascade” (Bioorg Med Chem Lett, 2003).
